Data as given in patent publication EP2140864A2 (H. Lundbeck A/S, priority 2001, dated 2002).
Where two headings read alike, the source gives them in different places.

Target: T1, human GAL3 receptor (Homo sapiens, UniProt O60755)
T1 construct: expressed in transfected cells
T1 sequence (O60755 1-368): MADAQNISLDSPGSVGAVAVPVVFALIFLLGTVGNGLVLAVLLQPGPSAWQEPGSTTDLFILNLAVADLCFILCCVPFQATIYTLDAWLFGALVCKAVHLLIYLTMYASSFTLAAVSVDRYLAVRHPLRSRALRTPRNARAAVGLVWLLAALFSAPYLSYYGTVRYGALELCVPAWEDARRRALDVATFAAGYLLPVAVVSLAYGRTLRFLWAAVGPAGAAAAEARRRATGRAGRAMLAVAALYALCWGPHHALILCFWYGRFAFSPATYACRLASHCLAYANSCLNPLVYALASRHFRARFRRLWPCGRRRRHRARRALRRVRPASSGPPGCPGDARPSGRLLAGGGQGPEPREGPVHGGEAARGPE
Test: Radioligand binding at cloned human GAL3 receptor
Details: cloned human receptor, read-out: Ki GalR3
Description: The present invention provides for a method of determining the binding affinity of a GAL3 antagonist, wherein the GAL3 antagonist is dissolved in a "suitable solvent". A "suitable solvent" means one which permits the measurement of binding affinity of the GAL3 antagonist to the human GAL3 receptor at concentrations less than 1 µM, preferably less than 100 nM. Examples of solvents include, but are not limited to, DMSO, ethanol, N,N-dimethylacetamide, or water. For indolones, the preferred solvent is 3% DMSO (final concentration in the assay). For pyrimidines, the preferred solvent is 1% ethanol/0.09% polypuronic acid F-127 (final concentration in the assay). For any other type of compounds, the preferred solvent is the solvent which permits the measurement of binding affinity of a GAL3 antagonist at the lowest concentration. Once a suitable solvent is ascertained for the binding assay of the human GAL3 receptor, the same solvent is used in assays to determine the binding affinity at the GAL1 receptor, the serotonin transporter, the norepinephrine transporter, and the dopamine transporter. A solvent of 0.4% DMSO is used in the central monoamine oxidase enzyme assay.
The binding properties of the pyrimidines of the present invention were evaluated at the cloned human galanin receptors, GAL1, GAL2, and GAL3, using protocols described herein.
The binding properties of the indolones of the present invention were evaluated at the cloned human galanin receptors, GAL1, GAL2, and GAL3, using protocols described herein.
LM(tk-) cells were stably transfected with the human GAL1 or GAL3 receptor. CHO cells were stably transfected with the human GAL2 receptor.
cDNAs for the human and rat GAL1, and human and rat GAL3 receptors were transfected with a G-418 resistant gene into the mouse fibroblast LM(tk-) cell line by a calcium phosphate transfection method (Cullen, 1987). Stably transfected cells were selected with G-418. Human and rat GAL2 receptors were similarly transfected into CHO cells.
Membranes were harvested from stably transfected LM(tk-) cells. Adherent cells were washed twice in ice-cold phosphate buffered saline (138 mM NaCl, 8.1 mM Na2HPO4, 2.5 mM KCl, 1.2 mM KH2PO4, 0.9 mM CaCl2, 0.5 mM MgCl2, pH 7.4) and lysed by sonication in ice-cold sonication buffer (20 mM Tris-HCl, 5 mM EDTA, pH 7.7). Large particles and debris were cleared by low speed centrifugation (200 x g, 5 min, 4°C). Membranes were collected from the supernatant fraction by centrifugation (32,000 x g, 18 min, 4°C), washed with ice-cold hypotonic buffer, and collected again by centrifugation (32,000 x g, 18 min, 4°C). The final membrane pellet was resuspended by sonication into a small volume of ice-cold binding buffer (-1 ml for every 5 plates: 10 mM NaCl, 20 mM HEPES, 0.22 mM KH2PO4, 1.26 mM CaCl2, 0.81 mM MgSO4, pH 7.4). Protein concentration was measured by the Bradford method (Bradford, 1976) using Bio-Rad Reagent, with bovine serum albumin as a standard. Membranes were held on ice for up to one hour and used fresh, or flash frozen and stored in liquid nitrogen. Membranes were prepared similarly from CHO cells.
Galanin Recentors: Binding assays were performed according to the following published methods: human GAL3 (PCT International Publication No. WO 98/15570), human GAL1 (PCT International Publication No. WO 95/2260), human GAL2 (PCT International Publication No. WO 97/26853).
Binding data were analyzed using nonlinear regression and statistical techniques available in the GraphPAD Prism package (San Diego, CA). Enzymatic assay data were derived from a standard curve of reference compound data.

Row | Ki (indolones) | Compound | Ki (pyrimidines)
1 |  | COc1cccc(Nc2cc(N(C)C)nc(N3CCN(Cc4ccccc4)CC3)n2)c1 [Example 252] | 0.088 µM
2 |  | Cc1ccc(Nc2nc(Nc3cccc(C)c3)cc(N(C)C)n2)cc1 [Example 53] | 0.98 µM
3 |  | COc1ccc(CCNc2nc(Nc3ccc(C)cc3)cc(N(C)C)n2)cc1 [Example 232] | 0.155 µM
4 |  | CCCCCCc1ccc(Nc2cc(N(C)C)nc(N3CCN(c4ccccn4)CC3)n2)cc1 [Example 187] | 0.019 µM
5 |  | CN(C)c1cc(Nc2ccc(Cc3ccccc3)cc2)nc(N2CCN(c3ccccn3)CC2)n1 [Example 188] | 0.027 µM
6 | 0.033 µM | O=C1/C(=N\c2ccc(I)cc2)c2ccccc2N1c1ccccc1 [Example 283, (3Z)-3-[(4-IODOPHENYL)IMINO]-1-PHENYL-1,3-DIHYDRO-2H-INDOL-2-ONE] | 
7 |  | CN(C)c1cc(Nc2cccc(OCc3ccccc3)c2)nc(N2CCN(c3cnccn3)CC2)n1 [Example 179] | 0.015 µM
8 |  | CN(C)c1cc(Nc2ccc3c(c2)CCC3)nc(N2CCN(c3ccccn3)CC2)n1 [Example 123] | 0.061 µM
9 | 0.224 µM | O=C1/C(=N\c2cccc(C(F)(F)F)c2)c2ccccc2N1c1ccc(-c2ccccc2)cc1 [Example 309, (3Z)-1-[1,1'-BIPHENYL]-4-YL-3-{[3-(TRIFLUOROMETHYL)PHENYL]IMINO}-1,3-DIHYDRO-2H-INDOL-2-ONE] | 
10 |  | CN(C)c1cc(Nc2ccc(Cl)c(Cl)c2Cl)nc(N2CCN(Cc3ccccc3)CC2)n1 [Example 230] | 0.052 µM
11 |  | CN(C)c1cc(N[C@H]2CC3CC[C@]2(C)C3(C)C)nc(N2CCN(Cc3ccccc3)CC2)n1 [Example 167] | 0.05 µM
12 |  | CN(C)c1cc(NC2C3(C)CCC(C3)C2(C)C)nc(N2CCN(Cc3ccccc3)CC2)n1 (stereo not shown) [Example 130] | 0.1 µM
13 |  | COc1ccccc1CN1CCN(c2nc(Nc3ccc(C)cc3)cc(N(C)C)n2)CC1 [Example 175] | 0.056 µM
14 |  | Cc1ccc(Nc2cc(N(C)C)nc(Nc3ccccc3)n2)cc1 [Example 54] | 0.132 µM
15 |  | CN(C)c1cc(Nc2ccc3c(c2)CCC3)nc(N2CCN(c3cnccn3)CC2)n1 [Example 180] | 0.151 µM
16 |  | CN(C)c1cc(Nc2ccc(Br)c(C(F)(F)F)c2)nc(N2CCN(c3ccccn3)CC2)n1 [Example 133] | 0.06 µM
17 | 0.055 µM | Cc1cc(/N=C2\C(=O)N(c3ccsc3)c3ccccc32)ccc1Cl [Example 259] | 
18 |  | Cc1ccc(Nc2cc(N(C)C)nc(N3CCN(Cc4ccccc4)CC3)n2)cc1 [Example 253] | 0.049 µM
19 |  | CN(C)c1cc(NC2C3CC4CC(C3)CC2C4)nc(N2CCN(Cc3ccccc3)CC2)n1 (stereo not shown) [Example 137] | 0.124 µM
20 |  | CN(C)c1cc(Nc2ccc(Cl)cc2Cl)nc(N2CCN(c3ccccn3)CC2)n1 [Example 205] | 0.193 µM
21 | 0.214 µM | COc1ccc2c(c1)N(c1ccccc1)C(=O)/C2=N\c1cccc(C(F)(F)F)c1 [Example 303, (3Z)-6-METHOXY-1-PHENYL-3-{[3-(TRIFLUOROMETHYL)PHENYL]IMINO}-1,3-DIHYDRO-2H-INDOL-2-ONE] | 
22 |  | COc1cccc(Nc2cc(N(C)C)nc(N3CCN(Cc4ccsc4)CC3)n2)c1 [Example 146] | 0.072 µM
23 |  | Cc1ccc(Nc2cc(N3CCCCC3)nc(Nc3ccccc3)n2)cc1 [Example 3] | 0.163 µM
24 |  | Cc1ccccc1Nc1cc(N(C)C)nc(Nc2ccccc2)n1 [Example 51] | 0.987 µM

Row | Ki (indolones) | Compound | Ki (pyrimidines)
25 |  | CN(C)c1cc(NC2CCCCCC2)nc(N2CCN(Cc3ccccc3)CC2)n1 [Example 128] | 0.249 µM
26 |  | COc1ccc(C(F)(F)F)cc1Nc1cc(N(C)C)nc(N2CCN(Cc3ccccc3)CC2)n1 [Example 226] | 0.072 µM
27 | 0.126 µM | O=C1/C(=N\c2cccc(C(F)(F)F)c2)c2ccccc2N1c1ccc(O)cc1 [Example 310, (3Z)-1-(4-HYDROXYPHENYL)-3-{[3-(TRIFLUOROMETHYL)PHENYL]IMINO}-1,3-DIHYDRO-2H-INDOL-2-ONE] | 
28 |  | Cc1ccc(Nc2cc(N(C)C)nc(N3CCN(CCc4ccccc4)CC3)n2)cc1 [Example 159] | 0.18 µM
29 | 0.039 µM | N#Cc1cccc(/N=C2\C(=O)N(c3ccccc3)c3ccccc32)c1 [Example 288, 3-{[(3Z)-2-OXO-1-PHENYL-1,2-DIHYDRO-3H-INDOL-3-YLIDENE]AMINO}BENZONITRILE] | 
30 |  | CCCc1ccc(Nc2cc(N(C)C)nc(N3CCN(c4ccccn4)CC3)n2)cc1 [Example 209] | 0.205 µM
31 |  | Cc1cccc(Nc2cc(N(C)C)nc(N3CCN(c4ccccn4)CC3)n2)c1C [Example 215] | 0.45 µM
32 |  | CN(C)c1cc(Nc2cccc(Cl)c2)nc(N2CCN(Cc3ccccc3)CC2)n1 [Example 160] | 0.026 µM
33 |  | Cc1ccc(Nc2cc(N(C)C)nc(NCCCc3ccccc3)n2)cc1 [Example 162] | 0.042 µM
34 |  | CN(C)c1cc(Nc2cccc(Br)c2)nc(N2CCN(c3ccccn3)CC2)n1 [Example 243] | 0.046 µM
35 |  | CC(C)c1cccc(Nc2cc(N(C)C)nc(N3CCN(c4ccccn4)CC3)n2)c1 [Example 191] | 0.075 µM
36 |  | CCCCCCCCc1ccc(Nc2cc(N(C)C)nc(N3CCN(c4ccccn4)CC3)n2)cc1 [Example 192] | 0.018 µM
37 |  | COc1cccc(Nc2cc(N(C)C)nc(N3CCN(Cc4ccncc4)CC3)n2)c1 [Example 147] | 0.64 µM
38 |  | CN(C)c1cc(Nc2cccc(OCc3ccccc3)c2)nc(N2CCN(c3ccccn3)CC2)n1 [Example 115] | 0.013 µM
39 | 0.15 µM | CCn1c2ccccc2c2cc(/N=C3\C(=O)N(c4ccccc4)c4ccccc43)ccc21 [Example 281, (3Z)-3-[(9-ETHYL-9H-CARBAZOL-3-YL)IMINO]-1-PHENYL-1,3-DIHYDRO-2H-INDOL-2-ONE] | 
40 |  | Cc1ccc(Nc2cc(N(C)C)nc(N3CCN(Cc4ccco4)CC3)n2)cc1 [Example 231] | 0.136 µM
41 | 0.082 µM | O=C1/C(=N\c2ccc(C3CCCCC3)cc2)c2ccccc2N1c1ccsc1 [Example 296, (3Z)-3-[(4-CYCLOHEXYLPHENYL)IMINO]-1-(3-THIENYL)-1,3-DIHYDRO-2H-INDOL-2-ONE] | 
42 | 0.034 µM | O=C1C(=Nc2ccc(Cl)cc2)c2ccccc2N1c1ccsc1 [Example 292, (3Z)-3-[(4-CHLOROPHENTYL)IMINO]-1-(3-THIENYL)-1,3-DIHYDRO-2H-INDOL-2-ONE] | 
43 |  | Cc1ccc(Nc2cc(N(C)C)nc(N3CCN(c4cnccn4)CC3)n2)cc1C [Example 183] | 0.066 µM
44 |  | Cc1ccc(Nc2cc(N(C)C)nc(N3CCN(c4ccccn4)CC3)n2)cc1C [Example 190] | 0.153 µM
45 |  | Cc1ccc(Nc2cc(N(C)C)nc(Nc3ccc(C)cc3)n2)cc1 [Example 56] | 0.794 µM
46 | 0.084 µM | O=C1C(=Nc2cccc(C(F)(F)F)c2)c2ccccc2N1Cc1ccc(Cl)s1 (mixture of isomers) [Example 108, 1-[(5-CHLORO-2-THIENYL)METHYL]-3-{[3-(TRIFLUOROMETHYL)PHENYL]IMINO}-1,3-DIHYDRO-2H-INDOL-2-ONE] | 
47 |  | CN(C)c1cc(Nc2cccc(Cl)c2)nc(N2CCN(c3ccccn3)CC2)n1 [Example 224] | 0.218 µM
48 |  | CN(C)c1cc(NC2CCCCC2)nc(Nc2ccccc2)n1 [Example 66] | 0.699 µM

Row | Compound | Ki (indolones) | Ki (pyrimidines)
49 | O=C1/C(=N\c2ccc(F)c(F)c2)c2ccccc2N1Cc1ccccn1 [Example 278] | 0.34 µM | 
50 | O=C1/C(=N\c2cc(Cl)cc(Cl)c2)c2ccccc2N1Cc1cccnc1 [Example 279] | 0.081 µM | 
51 | O=C1/C(=N\c2ccc(Cl)c(Cl)c2)c2ccccc2N1Cc1cccnc1 [Example 311] | 0.032 µM | 
52 | O=C1/C(=N\c2cc(Cl)cc(Cl)c2)c2ccccc2N1Cc1ccccn1 [Example 274] | 0.174 µM | 
